# Patent US5707963A, “Methods of using growth inhibitory peptides” (Health Research, Incorporated, priority 1996, dated 1998)
# Several values for one entry are separate records, joined by “and”; a condition that tells them apart may be missing. Equal entries are not always repeated. Where two headings read alike, the source gives them in different places.
# Experiments:
# [1] = system: estrogen-stimulated growth of mouse uterus; format: in vivo
# Procedure: An in vivo wet weight bioassay measuring inhibition of estrogen-stimulated growth of uteri was performed. The procedure of Mizejewski et al. was used for the wet weight assay (see Mizejewski, G. J. et al. (1983); Mizejewski, G. J. et al. (1986); Mizejewski, G. J. and A. S. Warner (1989); Mizejewski, G. J. et al., "Separation of the Estrogen-Activated Growth-Regulatory Forms of Alpha-Fetoprotein in Mouse Amniotic Fluid," Biol of Reprod 42:887-898 (1990); and Allen, S.H.G. et al. (1993)).
# Briefly, the synthesized powdered peptide was reconstituted in saline (1 mg/ml) to form a stock solution of the GIP. The stock solution was appropriately diluted to provide dosages of 25 to 100 ng/mouse. 0.1 ml of the appropriately diluted GIP was injected intraperitoneally into 15-18 day old Nya:NYLAR female mice. Control mice were injected with saline or other peptides, including a peptide encoded by a portion of the amino acid sequence of albumin and a random 34 amino acid peptide. 1 hour after this first injection, an estrogen challenge of 0.5 micrograms of E2 in 0.1 ml saline was given to determine the change in uterine responsiveness to E2 resulting from exposure to the first injection. 23 hours after the second injection, uteri were dissected, trimmed free of connective tissue and immediately weighed. The uterine wet weights were normalized to mouse body weight (mg uterine weight/g of body weight) to compensate for differences in body weight among litters of the same age. Percent inhibition of estrogen-stimulated uterine growth was calculated as described by Mizejewski et al. (1983).
# Two separate bioassays for inhibition of estrogen-stimulated growth were used. The first was an in vivo bioassay measuring an estrogen-induced increase in wet weight of the immature mouse uterus in a 24-hour determination. Dosages of peptide fragments ranged from 10 to 100 ng, and the %inhibition given in Table 6 represents the peak assay point of the dilution series.
# [2] = system: human chorionic gonadotropin (HCG)-stimulated growth of mouse ovary; experiment: In vivo wet weight bioassay, inhibition of HCG-stimulated growth of the ovary; conditions: for Percent Growth Inhibition: immature mouse ovary
# Procedure: An in vivo wet weight bioassay measuring inhibition of human chorionic gonadotropin (HCG)-stimulated growth of the ovary was performed. The procedure of Mizejewski et al. (see previous citations) was used for the wet weight assay. The applicability of the wet weight bioassay for measuring HCG-stimulated growth of the ovary is disclosed by Mizejewski, G. J., "Human Chorionic Gonadotrophin: Comparative Studies of Ovarian Uptake In Mammals", Comp Biochem Physio 52A:29-34 (1975).
# Briefly, the synthesized powdered peptide was reconstituted in saline (1 mg/ml) to form a stock solution of the GIP. The stock solution was appropriately diluted to provide dosages of 10ng to 100 μg/mouse. 0.1 ml of the appropriately diluted GIP was injected intraperitoneally into 15-18 day old Nya:NYLAR female mice. Control mice were injected with saline. 1 hour after this first injection, an HCG challenge of 2.8 I.U. of HCG in 0.05 ml saline was given to determine the change in ovarian responsiveness to HCG resulting from exposure to the first injection. 23 hours after the second injection, ovaries were dissected, trimmed free of connective tissue and immediately weighed. The ovarian wet weights were normalized to mouse body weight (mg ovarian weight/g of body weight) to compensate for differences in body weight among litters of the same age. Percent inhibition of HCG-stimulated ovarian growth was calculated as described by Mizejewski et al. (1983).
# [3] = system: estrogen-stimulated growth of mouse uterus; format: in vivo; remark: listed apart in the source
# [4] = system: human MCF-7 breast cancer cells; experiment: In vitro MCF-7 focus assay (estrogen-induced foci formation); format: cell-based; conditions: for Percent Foci Inhibition: MCF-7 Cell Culture
# Source text: In an in vitro bioassay, the MCF-7 focus assay was used for preliminary evaluation of the GIP preparation for both estrogenicity and antiestrogenicity. One of the major consequences of human estrogen exposure is induction of cell proliferation and subsequent structural rearrangement of the acini, a process based on the interactions of multiple estrogen dependent gene expressions. […] The estrogen dependent MCF-7 cell proliferation is primarily a postconfluent event which leads to development of multicellular aggregates (foci). […] The procedure of Gierthy et al. was used for the MCF-7 assay of the GIP (see Gierthy, J. F. et al., "Correlation of in Vitro and in Vivo Growth Suppression of MCF-7 Human Breast Cancer by 2,3,7,8-Tetrachlorodibenzo-p-dioxin" Cancer Research 53:3149-3153 (1993)).
# Briefly, stock MCF-7 cells were suspended in medium (see Gierthy, J. F. et al. 1993) after treatment with trypsin (0.25%) and seeded into 24-well plastic tissue culture plates. The MCF-7 cells were seeded (2 cm^2 /well) at a density of b 10^5 cells/well in 1 ml of medium, and incubated at 37° C. in a humidified atmosphere containing 5% CO2. The cultures were refed at 24 hours and every 4-5 days thereafter with 2 ml medium supplemented with 1×10^-9 M 17β-estradiol, a concentration which induces maximum focus development, and various concentrations of GIP (10^-8 M-10^-13 M) in nonestrogenic DC5 medium and estrogenic DF5 medium which contains high levels of bovine alpha-fetoprotein (5% fetal bovine serum supplemented). After 14 days the cultures were fixed with formalin in pH 7.4 buffer (see Gierthy, J. F. et al. 1993) and stained with 1% rhodamine B. Foci were counted by using an automated colony counter modified to magnify the image of the microscopic multicellular foci. The foci retained the red rhodamine B stain to a greater extent than did surrounding monolayer cells, affording appropriate contrast for enumeration.
substance,measurement,setting,value
Leu Ser Glu Asp Lys Leu Leu Ala Cys Gly Glu Gly Ala Ala Asp Ile ile Ile Gly His Leu Cys Ile Arg His Glu Met Thr Pro Val Ash Pro Gly Val (LSEDKLLACGEGAADIIIGHLCIRHEMTPVNPGV) [GIP],inhibition of estrogen-stimulated growth (range over Table 1),"[1]; 25 to 100 ng/mouse, immature and adult mouse uterus",33-79%
same,Percent Growth Inhibition,"[1]; immature mouse uterus, 25 ng per mouse i.p., E2 challenge 0.5 micrograms",33%
same,Percent Growth Inhibition,"[1]; immature mouse uterus, 25 ng per mouse, added human AFP",42%
same,Percent Growth Inhibition,"[1]; immature mouse uterus, 50 ng per mouse i.p., E2 challenge 0.5 micrograms",38% and 37% and 30-40%
same,Percent Growth Inhibition,"[1]; immature mouse uterus, 100 ng per mouse i.p., E2 challenge 0.5 micrograms",35%
same,inhibition of estrogen-stimulated growth,"[1]; immature mouse uterus, peptide diluted 2,000-fold or more",30-40%
same,dose with demonstrable activity without E2 activation prior to inoculation,[1]; mouse contains the circulating ligand (estrogen),100 ng/mouse
same,inhibition of HCG-induced growth (range over Table 5),[2]; 10ng to 100 μg/mouse,22-100%
same,Percent Growth Inhibition,[2]; 100 ng per mouse,70%
same,Percent Growth Inhibition,[2]; 125 ng per mouse,50%
same,Percent Growth Inhibition,[2]; 250 ng per mouse,56%
same,Percent Growth Inhibition,[2]; 500 ng per mouse,67%
same,Percent Growth Inhibition,[2]; 1 μg per mouse,100% and 79%
same,Percent Growth Inhibition,[2]; 10 μg per mouse,94%
same,Percent Growth Inhibition,"[2]; 100 μg per mouse i.p., HCG 2.8 I.U.",22%
same,most effective dose,"[2]; immature ovary, produced 100% growth inhibition",1 μg/mouse
same,activity in adult cycling mice,"[3]; adult cycling mice, with and without addition of purified human full-length AFP",active
same,Percent Growth Inhibition,"[3]; adult mouse uterus, 25 ng per mouse",66%
same,Percent Growth Inhibition,"[3]; adult mouse uterus, 100 ng per mouse, added human AFP",79%
same,inhibition of estrogen-stimulated growth,"[3]; adult mouse uterus, peptide diluted 2,000-fold or more",80%
same,inhibition in the MCF-7 cell culture assays,[4]; 10^-10 to 10^-13 M peptide concentration,60-70%
same,Percent Foci Inhibition,[4]; 14 days,60-70%
same,Percent Foci Inhibition,"[4]; peptide molarity 10^-11 -10^-13, 14 days",60-74% and 50-60%
same,Percent Foci Inhibition,"[4]; peptide molarity 10^-12, added human AFP",40%
same,maximum inhibition of DF5 induced foci development,"[4]; estrogenic DF5 medium, GIP 10^-10 to 10^-13 M",74%
same,concentration at which estrogenic foci induction starts,"[4]; nonestrogenic DC5 medium, dose responsive",10^-8 M
